“Also recorded” adds a separate entry of the source. Peptide text beside a SMILES is read from it.
Tested on: male runners
Experiment: Multiple object tracking (CAVE, NeuroTracker)
Assay type: in vivo, human
Conditions: for NeuroTracker Δ, group mean: Post-Pre
Description: The testing protocol is depicted in FIG. 1. Data collection occurred on four separate occasions. Each session required participants to perform a 60-min run at 75% of their previously measured VO2max. Following this run, all participants performed a run at 90% of their VO2max until volitional exhaustion. All participants performed their first trial (DHY) without any rehydration. During this session the total weight lost during the trial was determined. The fluid loss that occurred during this session was then used to determine the participant's swear rate (L·hr^−1). To continue in the study, participant's sweat rate was or exceeded 1.3 L·hr^−1. During the next three trails participants were provided 250 ml of fluid every 15 minutes in equal amounts. During one of the trials participants consumed only a flavored sports drink (ELECT only), while during the other trials participants consumed the alanine-glutamine supplement (Sustamine™) mixed in the same flavored sports drink at either a low (LD: 300 mg per 500 ml) or high (HD: 1 g per 500 ml) dose. Visual optical tracking was assessed using a Cave Automatic Virtual Environment (CAVE) system. The CAVE is a 2.4 m×2.4 m×2.4 m room that includes a frontal canvas projection wall which served as surfaces for image projection. Four high-resolution projectors were synchronized, and the image was projected onto the front screen. Participants tracked 4 of 8 objects that moved in a three-dimensional plane. Velocity of movement began at a slow tracking speed and progressed on the performance of the individual participant. Each participant performed 10 trials. During each trial participants wore 3-dimensional glasses. The velocity of movement that was most successful was recorded. Additionally, to make inferences on true effects of the different trials on reaction performance, an analysis based on the magnitude of differences, calculated from 90% confidence intervals, as previously described by Batterham and Hopkins (2005), was used in this study. Differences in Post-Pre performance (Δresponse) between trials were analyzed via a published spreadsheet (Hopkins 2007), with the smallest non-trivial change set at 20% of the grand standard deviation (Batterham and Hopkins 2005). All data are expressed as a mean effect±SD, with percent chances of a beneficial, trivial or negative outcome. Qualitative inferences, based on quantitative chances were assessed as: <1% almost certainly not, 1-5% very unlikely, 5-25% unlikely, 25-75% possibly, 75-95% likely, 95-99% very likely and >99% almost certainly (Hopkins 2002).

C[C@H](N)C(=O)N[C@@H](CCC(N)=O)C(=O)O [L-Alanyl-L-Glutamine] (H-Ala-Gln-OH)
NeuroTracker Δ, Interpretation (Dehydration vs High Dose): Unclear
NeuroTracker Δ, Mean Difference (Dehydration vs High Dose): −0.06
NeuroTracker Δ, Percent Negative (Dehydration vs High Dose): 37.20%
NeuroTracker Δ, Percent Positive (Dehydration vs High Dose): 12.32%
NeuroTracker Δ, Percent Trivial (Dehydration vs High Dose): 50.47%
NeuroTracker Δ, Interpretation (Dehydration vs Low Dose): Unclear
NeuroTracker Δ, Mean Difference (Dehydration vs Low Dose): 0.008
NeuroTracker Δ, Percent Negative (Dehydration vs Low Dose): 21.19%
NeuroTracker Δ, Percent Positive (Dehydration vs Low Dose): 24.48%
NeuroTracker Δ, Percent Trivial (Dehydration vs Low Dose): 54.33%
NeuroTracker Δ, Interpretation (Gatorade vs High Dose): likely maintain or improve their scores more so than when they consumed the electrolyte drink only; also recorded: Likely
NeuroTracker Δ, Mean Difference (Gatorade vs High Dose): −0.23
NeuroTracker Δ, Percent Negative (Gatorade vs High Dose): 85.10%
NeuroTracker Δ, Percent Positive (Gatorade vs High Dose): 0.44%
NeuroTracker Δ, Percent Trivial (Gatorade vs High Dose): 14.46%
NeuroTracker Δ, group mean (High Dose (1 g per 500 ml)): 0.201
NeuroTracker Δ, group mean (Low Dose (300 mg per 500 ml)): 0.132
NeuroTracker Δ, Interpretation (Low Dose vs Gatorade): Possibly
NeuroTracker Δ, Mean Difference (Low Dose vs Gatorade): 0.17
NeuroTracker Δ, Percent Negative (Low Dose vs Gatorade): 4.42%
NeuroTracker Δ, Percent Positive (Low Dose vs Gatorade): 64.40%
NeuroTracker Δ, Percent Trivial (Low Dose vs Gatorade): 31.18%
NeuroTracker Δ, Interpretation (Low Dose vs High Dose): Possibly
NeuroTracker Δ, Mean Difference (Low Dose vs High Dose): 0.069
NeuroTracker Δ, Percent Negative (Low Dose vs High Dose): 26.72%
NeuroTracker Δ, Percent Positive (Low Dose vs High Dose): 0.45%
NeuroTracker Δ, Percent Trivial (Low Dose vs High Dose): 72.83%
changes in multiple object tracking (between trials): No significant differences were noted between trials

Source: patent US10369185B2, “Methods and compositions for enhancement of ability to concentrate” (KYOWA HAKKO BIO CO., LTD., priority 2014, dated 2019)
